One test has as its target Cannabinoid receptor 1 (Homo sapiens, UniProt P21554). Format: functional, cell-based.
Test [1] addresses cGMP-inhibited 3',5'-cyclic phosphodiesterase 3A (Homo sapiens, UniProt Q14432). Format: functional.
The target of test [2] is T1, Amine oxidase [flavin-containing] A (Homo sapiens, UniProt P21397).
T1 sequence (P21397 whole entry): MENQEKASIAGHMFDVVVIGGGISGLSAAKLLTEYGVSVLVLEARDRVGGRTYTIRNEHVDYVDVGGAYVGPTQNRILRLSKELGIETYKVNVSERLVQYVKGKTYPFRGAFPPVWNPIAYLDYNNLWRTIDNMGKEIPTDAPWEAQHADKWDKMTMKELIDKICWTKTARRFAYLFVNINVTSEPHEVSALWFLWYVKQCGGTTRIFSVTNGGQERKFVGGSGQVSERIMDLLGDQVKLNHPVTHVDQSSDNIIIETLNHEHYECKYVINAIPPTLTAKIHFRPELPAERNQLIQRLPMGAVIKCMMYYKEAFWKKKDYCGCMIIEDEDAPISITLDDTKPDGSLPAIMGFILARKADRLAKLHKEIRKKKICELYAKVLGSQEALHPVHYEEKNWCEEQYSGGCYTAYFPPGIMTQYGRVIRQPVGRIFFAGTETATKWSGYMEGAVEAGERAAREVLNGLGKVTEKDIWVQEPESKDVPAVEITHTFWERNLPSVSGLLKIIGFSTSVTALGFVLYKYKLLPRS
The test is classed as functional.

Test [3] concerns the target Prostaglandin G/H synthase 1 (Homo sapiens, UniProt P23219). The test is classed as functional.
The next test addresses Histamine H2 receptor (Homo sapiens, UniProt P25021). Format: functional, cell-based.
Test [4] deals with T2, Muscarinic acetylcholine receptor M2 (Homo sapiens, UniProt P08172).
T2 sequence (P08172 whole entry): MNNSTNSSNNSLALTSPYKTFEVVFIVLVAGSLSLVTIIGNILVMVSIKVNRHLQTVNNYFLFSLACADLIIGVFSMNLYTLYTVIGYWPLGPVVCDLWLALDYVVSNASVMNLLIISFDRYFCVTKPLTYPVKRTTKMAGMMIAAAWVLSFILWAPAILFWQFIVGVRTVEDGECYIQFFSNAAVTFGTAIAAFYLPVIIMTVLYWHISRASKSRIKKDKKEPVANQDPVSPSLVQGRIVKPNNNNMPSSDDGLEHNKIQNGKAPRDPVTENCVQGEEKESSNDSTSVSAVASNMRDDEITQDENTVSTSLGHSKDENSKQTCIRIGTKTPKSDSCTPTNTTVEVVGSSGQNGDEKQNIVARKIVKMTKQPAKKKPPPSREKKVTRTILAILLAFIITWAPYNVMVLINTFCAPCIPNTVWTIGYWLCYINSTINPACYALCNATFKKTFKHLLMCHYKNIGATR

The target in another test is T3, Adenosine receptor A1 (Homo sapiens, UniProt P30542).
T3 sequence (P30542 whole entry): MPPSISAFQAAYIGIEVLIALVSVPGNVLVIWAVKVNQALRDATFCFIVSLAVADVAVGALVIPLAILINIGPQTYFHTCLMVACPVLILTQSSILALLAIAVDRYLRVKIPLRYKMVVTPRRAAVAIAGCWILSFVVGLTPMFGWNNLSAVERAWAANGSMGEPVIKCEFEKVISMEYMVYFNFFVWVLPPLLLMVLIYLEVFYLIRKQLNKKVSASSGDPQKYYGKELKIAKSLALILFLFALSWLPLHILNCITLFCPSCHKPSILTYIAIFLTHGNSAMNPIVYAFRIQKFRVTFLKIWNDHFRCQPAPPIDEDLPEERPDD

In test [5] the target is T4, Alpha-1A adrenergic receptor (Homo sapiens, UniProt P35348).
T4 sequence (P35348 whole entry): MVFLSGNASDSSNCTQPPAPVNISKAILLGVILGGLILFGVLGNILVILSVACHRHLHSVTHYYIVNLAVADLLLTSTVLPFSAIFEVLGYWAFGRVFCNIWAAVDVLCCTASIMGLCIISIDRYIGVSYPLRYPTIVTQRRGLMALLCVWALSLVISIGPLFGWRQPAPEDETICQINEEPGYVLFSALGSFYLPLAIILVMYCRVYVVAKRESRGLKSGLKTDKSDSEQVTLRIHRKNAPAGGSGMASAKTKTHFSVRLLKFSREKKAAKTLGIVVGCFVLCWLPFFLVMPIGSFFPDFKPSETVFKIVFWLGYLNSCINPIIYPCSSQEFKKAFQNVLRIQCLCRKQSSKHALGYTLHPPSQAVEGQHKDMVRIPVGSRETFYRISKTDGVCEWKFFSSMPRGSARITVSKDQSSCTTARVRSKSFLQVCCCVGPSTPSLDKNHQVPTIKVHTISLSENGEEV
Format: functional, cell-based.

Test [6] addresses T4, Alpha-1A adrenergic receptor. Format: functional, cell-based. The source holds these as a separate data set.
The target of test [7] is T5, Prostaglandin G/H synthase 1 (Rattus norvegicus, UniProt Q63921).
T5 sequence (Q63921 whole entry): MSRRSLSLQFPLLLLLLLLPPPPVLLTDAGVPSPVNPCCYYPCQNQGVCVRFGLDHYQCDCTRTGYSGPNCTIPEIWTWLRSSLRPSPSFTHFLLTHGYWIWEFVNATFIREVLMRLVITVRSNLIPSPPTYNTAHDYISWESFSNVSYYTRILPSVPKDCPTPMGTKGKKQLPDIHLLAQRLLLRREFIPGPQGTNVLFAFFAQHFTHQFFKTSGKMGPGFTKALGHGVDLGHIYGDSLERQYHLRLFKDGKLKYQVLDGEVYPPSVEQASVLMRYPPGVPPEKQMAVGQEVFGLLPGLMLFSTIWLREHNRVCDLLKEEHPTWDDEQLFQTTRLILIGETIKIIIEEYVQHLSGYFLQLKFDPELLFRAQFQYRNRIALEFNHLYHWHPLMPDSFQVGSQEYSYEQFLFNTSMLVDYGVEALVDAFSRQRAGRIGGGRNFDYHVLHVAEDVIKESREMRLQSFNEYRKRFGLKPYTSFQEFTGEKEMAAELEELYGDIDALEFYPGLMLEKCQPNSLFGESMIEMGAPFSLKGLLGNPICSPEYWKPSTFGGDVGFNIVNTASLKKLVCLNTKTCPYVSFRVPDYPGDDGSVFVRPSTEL
Format: functional.
Further: assay procedure not described here.

Sequence of cGMP-inhibited 3',5'-cyclic phosphodiesterase 3A (Q14432 whole entry): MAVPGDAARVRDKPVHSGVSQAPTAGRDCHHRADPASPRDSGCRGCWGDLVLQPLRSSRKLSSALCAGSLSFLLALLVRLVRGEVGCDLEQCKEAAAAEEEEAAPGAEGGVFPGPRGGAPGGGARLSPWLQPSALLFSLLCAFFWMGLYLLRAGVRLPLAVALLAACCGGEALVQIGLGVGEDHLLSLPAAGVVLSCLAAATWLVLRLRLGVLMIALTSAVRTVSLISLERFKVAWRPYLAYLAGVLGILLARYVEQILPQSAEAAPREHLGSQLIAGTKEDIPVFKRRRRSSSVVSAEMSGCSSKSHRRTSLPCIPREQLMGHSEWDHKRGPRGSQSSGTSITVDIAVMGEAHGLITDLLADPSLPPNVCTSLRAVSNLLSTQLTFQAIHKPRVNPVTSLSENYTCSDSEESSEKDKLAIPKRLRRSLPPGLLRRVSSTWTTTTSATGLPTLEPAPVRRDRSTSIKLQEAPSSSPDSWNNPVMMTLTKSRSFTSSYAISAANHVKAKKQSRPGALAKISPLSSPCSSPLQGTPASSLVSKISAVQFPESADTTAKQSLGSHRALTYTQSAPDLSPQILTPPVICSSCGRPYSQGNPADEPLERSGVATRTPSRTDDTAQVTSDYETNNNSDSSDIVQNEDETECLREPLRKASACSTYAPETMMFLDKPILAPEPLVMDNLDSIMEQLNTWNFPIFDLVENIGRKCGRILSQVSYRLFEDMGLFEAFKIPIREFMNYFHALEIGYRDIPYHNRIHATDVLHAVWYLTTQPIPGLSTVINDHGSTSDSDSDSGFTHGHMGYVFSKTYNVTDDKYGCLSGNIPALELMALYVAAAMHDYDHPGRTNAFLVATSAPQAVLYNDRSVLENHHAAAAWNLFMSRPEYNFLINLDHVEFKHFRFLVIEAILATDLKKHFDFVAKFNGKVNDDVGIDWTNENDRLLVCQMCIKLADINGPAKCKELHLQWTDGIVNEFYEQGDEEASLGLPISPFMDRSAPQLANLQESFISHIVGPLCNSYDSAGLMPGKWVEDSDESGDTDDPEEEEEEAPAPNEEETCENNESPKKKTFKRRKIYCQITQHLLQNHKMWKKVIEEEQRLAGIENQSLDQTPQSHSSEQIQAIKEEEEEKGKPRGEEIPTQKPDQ
Sequence of Prostaglandin G/H synthase 1 (Homo sapiens, UniProt P23219) (P23219 whole entry): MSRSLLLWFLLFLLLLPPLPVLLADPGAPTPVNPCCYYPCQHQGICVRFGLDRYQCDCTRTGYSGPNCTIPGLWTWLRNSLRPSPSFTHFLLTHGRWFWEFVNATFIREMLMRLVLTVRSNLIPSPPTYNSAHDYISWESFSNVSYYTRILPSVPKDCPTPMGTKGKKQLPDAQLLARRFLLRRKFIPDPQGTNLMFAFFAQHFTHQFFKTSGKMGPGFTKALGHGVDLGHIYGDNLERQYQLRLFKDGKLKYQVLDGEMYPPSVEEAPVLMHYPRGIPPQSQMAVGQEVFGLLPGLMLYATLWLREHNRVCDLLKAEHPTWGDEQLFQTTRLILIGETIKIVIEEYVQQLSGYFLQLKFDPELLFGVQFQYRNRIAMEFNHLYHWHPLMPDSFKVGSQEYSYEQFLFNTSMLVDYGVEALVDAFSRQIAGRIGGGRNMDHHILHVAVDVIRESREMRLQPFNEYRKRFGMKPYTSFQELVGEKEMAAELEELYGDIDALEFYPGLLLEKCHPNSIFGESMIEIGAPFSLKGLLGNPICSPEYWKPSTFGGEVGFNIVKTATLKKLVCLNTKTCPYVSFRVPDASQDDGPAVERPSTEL
Sequence of Cannabinoid receptor 1 (P21554 whole entry): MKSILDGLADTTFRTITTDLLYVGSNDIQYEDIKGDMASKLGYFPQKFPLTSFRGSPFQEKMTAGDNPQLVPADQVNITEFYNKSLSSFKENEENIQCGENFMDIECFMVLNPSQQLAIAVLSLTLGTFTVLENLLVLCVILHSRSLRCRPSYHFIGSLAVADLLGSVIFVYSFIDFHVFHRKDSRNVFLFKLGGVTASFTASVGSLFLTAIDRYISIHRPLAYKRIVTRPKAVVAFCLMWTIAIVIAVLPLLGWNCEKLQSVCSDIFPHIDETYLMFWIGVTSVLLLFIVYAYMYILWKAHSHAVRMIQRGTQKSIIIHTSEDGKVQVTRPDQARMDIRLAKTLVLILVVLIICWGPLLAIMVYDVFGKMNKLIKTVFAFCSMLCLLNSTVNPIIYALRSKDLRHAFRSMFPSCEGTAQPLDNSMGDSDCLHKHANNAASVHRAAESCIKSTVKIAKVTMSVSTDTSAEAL
Sequence of Histamine H2 receptor (P25021 whole entry): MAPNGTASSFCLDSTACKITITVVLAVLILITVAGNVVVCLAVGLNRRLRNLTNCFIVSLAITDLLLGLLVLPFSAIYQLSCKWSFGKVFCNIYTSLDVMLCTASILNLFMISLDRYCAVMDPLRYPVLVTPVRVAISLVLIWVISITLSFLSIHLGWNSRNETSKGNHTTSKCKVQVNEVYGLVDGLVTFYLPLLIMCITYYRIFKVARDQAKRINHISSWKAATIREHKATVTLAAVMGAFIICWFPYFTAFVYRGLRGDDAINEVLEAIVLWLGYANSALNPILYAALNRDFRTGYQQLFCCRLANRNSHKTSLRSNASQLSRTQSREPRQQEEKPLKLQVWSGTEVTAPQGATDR

The term AC50 denotes the concentration giving half of the maximal activity seen. A lower AC50 goes with activity at low concentration. In the case of `Cc1ccc(C)c(OCCCC(C)(C)C(=O)O)c1` [GEMFIBROZIL], the AC50 at Cannabinoid receptor 1 was more than 30 µM; in test [1], more than 30 µM; in test [2], more than 30 µM; in test [3], more than 30 µM; on Histamine H2 receptor, more than 10 µM; in [4] it was more than 30 µM. The AC50 (at Adenosine receptor A1; in [5]; in test [6]; in test [7]) was more than 30 µM each time.
As to `CCCc1nc2c(C)cc(-c3nc4ccccc4n3C)cc2n1Cc1ccc(-c2ccccc2C(=O)O)cc1`, the AC50 is more than 30 µM on Cannabinoid receptor 1; 29.9 µM in test [1]; more than 30 µM in [2]; more than 30 µM in test [3]; more than 10 µM at Histamine H2 receptor; more than 30 µM in [4]. The AC50 on Adenosine receptor A1 is more than 30 µM; in [5] it was 9.55 µM; in test [6] it was 3 µM; in test [7], more than 30 µM.
As to `O=C1Cc2cc(CCN3CCN(c4nsc5ccccc45)CC3)c(Cl)cc2N1` [ZIPRASIDONE], the AC50 on Cannabinoid receptor 1 was more than 30 µM; in test [1] it was more than 30 µM; in [2], more than 30 µM; in [3] it was more than 30 µM; on Histamine H2 receptor, more than 10 µM; in test [4] it was 7.14 µM. In addition, the AC50 at Adenosine receptor A1 was more than 30 µM; in [5] it was more than 30 µM; in [6], 0.684 µM; in test [7], more than 30 µM.
With `COc1cc(C(C)=O)ccc1OCCCN1CCC(c2noc3cc(F)ccc23)CC1` [ILOPERIDONE], the AC50 at Cannabinoid receptor 1 is more than 30 µM; in test [1], more than 30 µM; in [2], more than 30 µM; in test [3], more than 30 µM; in test [4], 2.18 µM; on Adenosine receptor A1, more than 30 µM. Moreover, the half-maximal activity concentration (AC50) in [5] was more than 10 µM; in [6], 0.0092 µM; in [7], more than 30 µM.
With `COc1ccccc1OC1(C)OC(=O)c2ccccc2O1` (stereo not given) [GUAIMESAL], the AC50 (in test [1]; in test [2]; in test [3]; in test [4]; at Adenosine receptor A1; in test [5]) was more than 30 µM in each case.
On to `O=C(O)Cc1ccccc1Oc1ccc(Cl)cc1Cl` [FENCLOFENAC], for which the half-maximal activity concentration (AC50) was more than 30 µM on Cannabinoid receptor 1; more than 30 µM in [1]; more than 30 µM in test [2]; more than 30 µM in test [3]; more than 10 µM at Histamine H2 receptor; more than 30 µM in test [4]. Also, the AC50 (on Adenosine receptor A1; in [5]; in [6]; in [7]) was more than 30 µM throughout.
On to `Cc1cc(C2CCCCC2)n(O)c(=O)c1` [CICLOPIROX], for which the AC50 in [1] was more than 30 µM; in [2] it was more than 30 µM; in [3], more than 30 µM; in test [4], more than 30 µM; in test [5], 23.1 µM; in test [6], more than 30 µM. Further, the AC50 in test [7] was more than 3 µM.
In the case of `C[N+](C)(C)CCOP(=O)(O)OP(=O)([O-])OC[C@H]1O[C@@H](n2ccc(N)nc2=O)[C@H](O)[C@@H]1O` [CITICOLINE], the half-maximal activity concentration (AC50) (on Cannabinoid receptor 1; in test [1]; in test [2]; in [3]; at Histamine H2 receptor; in test [4]) was more than 30 µM in each case. Besides, the AC50 in [5] and in [6] was more than 30 µM throughout.
With `CN(C)c1ccc(O)c2c1C[C@H]1C[C@H]3[C@H](N(C)C)C(O)=C(C(N)=O)C(=O)[C@@]3(O)C(O)=C1C2=O` [MINOCYCLINE], the AC50 is more than 30 µM in test [1]; more than 30 µM in [2]; 2.5 µM in [3]; more than 10 µM in [4]; more than 30 µM in test [5].

For the origin of these results see ChEMBL document CHEMBL5291721, “A preclinical secondary pharmacology resource illuminates target-adverse drug reaction associations of marketed drugs” (Nat Commun, 2023).
